One block for each molecule: values may come before it.
Columns and labels:
calf thymus dsDNA = test: DNA titration of nucleic acid dye-based substrates and controls; type: binding; conditions: 1 μM in pH 7.4 TE buffer, 30-minute incubation at room temperature, excitation 485 nm, emission 530 nm
Protocol: In this example, nucleic acid dye-based caspase-3 substrates, Substrate No. 19 and Substrate No. 20, and respective control compounds, Compound No. 7 and Compound No. 24, were titrated with varying amounts of calf thymus dsDNA and the fluorescence signals of the solutions were recorded. Briefly, the substrates and the respective controls were prepared as generally described above in relation to Example 51. Multiple wells of a 96-well plate were loaded with the substrate (100 μL, 1 μM) or the respective control (100 μL, 1 μM). Each well was then titrated with 5 μL of one of the seven DNA stock solutions of 2.1, 4.1, 8.2, 16.4, 32.8 65.6 and 127.5 μg/mL concentration, respectively, in pH 7.4 TE buffer. After a 30-minute incubation at room temperature, the fluorescence reading of each well was recorded with a SpectraMax Germini XS fluorescence microplate reader (Molecular Devices Corp., Sunnyvale, Calif.), with the excitation wavelength and the emission collection wavelength set at 485 nm and 530 nm, respectively.
DNA titrations of Compound No. 21, a nucleic acid dye-based HDAC substrate, and Compound No. 23, a control associated with Compound No. 21, were titrated with varying amounts of calf thymus dsDNA in the manner generally described above in relation to Example 52.

[1] = target: T1, caspase-3 activity in Jurkat cells (Homo sapiens, UniProt P42574); test: Detection of caspase-3 activity in live cells by fluorescence microscopy; type: cell-based; conditions: Jurkat cells induced 4 hours with staurosporine (1 μM), substrate 10 μM for 15 minutes, confocal microscope, FIG. 5
T1 construct: A flask of Jurkat cells were induced with staurosporine (1 μM) for apoptosis; endogenous in cells; host or cells: Jurkat cells induced with staurosporine
T1 sequence (P42574 29-175 limits assumed): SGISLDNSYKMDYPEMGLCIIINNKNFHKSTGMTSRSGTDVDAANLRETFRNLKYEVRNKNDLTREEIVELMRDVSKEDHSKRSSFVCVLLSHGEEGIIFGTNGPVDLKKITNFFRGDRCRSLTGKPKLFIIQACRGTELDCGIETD
T1 sequence (P42574 176-277 limits assumed): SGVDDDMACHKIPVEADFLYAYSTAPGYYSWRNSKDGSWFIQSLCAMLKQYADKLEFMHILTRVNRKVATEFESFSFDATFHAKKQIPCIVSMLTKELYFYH
Protocol: (§1) Substrate No. 19 (10 μM) was incubated for 15 minutes with Jurkat cells that had been induced for 4 hours with staurosporine (1 μM). Separately, Substrate No. 19 (10 μM) was incubated for 15 minutes with uninduced Jurkat cells, which served as a negative control. For each of the cell cultures, cells (1×10^5) were taken, pelleted and then resuspended in Annexin V binding buffer (100 μL; HEPES buffer (10 mM, pH 7.4), NaCl (140 mM) and CaCl2 (2.5 mM)) in a tube, whereupon Texas Red-conjugated Annexin V (5 μL, 50 μg/mL) (Biotium Inc., Hayward, Calif.) was added to each tube. After 15 minutes of incubation at room temperature, a cell culture (5 μL) of the induced cells or the uninduced cells was spotted onto a slide, which was then mounted with a coverslip and sealed with nail polish. The cells were examined with a 510 Meta UV/Vis confocal microscope. […] The green fluorescence is indicative of nuclear DNA staining by the nucleic acid dye that is formed from substrate cleavage via caspase-3. The red fluorescence is indicative of the staining of phosphatidylserine (PS) by the Texas Red-conjugated Annexin V, a fluorescent stain that is used to identify apoptotic cells.

caspase-3 = target: T2, caspase-3 (Homo sapiens, UniProt P42574); test: In vitro enzymatic assay for nucleic acid dye-based substrates for caspase-3; type: biochemical; conditions: 10 μM, caspase-3 0.1 unit/mL, salmon sperm dsDNA 3.3 μg/mL, excitation 485 nm, emission 530 nm, FIG. 3
T2 construct: purchased Biovision Inc., Mountain View, Calif
T2 sequence (P42574 29-175 limits assumed): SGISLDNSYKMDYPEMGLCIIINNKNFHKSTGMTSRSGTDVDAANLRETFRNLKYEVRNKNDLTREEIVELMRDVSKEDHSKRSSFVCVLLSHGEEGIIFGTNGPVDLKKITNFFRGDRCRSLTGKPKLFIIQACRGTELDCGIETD
T2 sequence (P42574 176-277 limits assumed): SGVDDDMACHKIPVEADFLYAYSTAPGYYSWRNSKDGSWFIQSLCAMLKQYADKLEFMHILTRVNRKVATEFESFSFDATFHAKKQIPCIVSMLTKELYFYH
Protocol: In this example, nucleic acid dye-based caspase-3 substrates were assayed in the presence of caspase-3 and dsDNA by monitoring the fluorescence increase. In one example, Substrate No. 19 (10 μM) was incubated with caspase-3 (0.1 unit/mL) (Biovision Inc., Mountain View, Calif.) and salmon sperm dsDNA (3.3 μg/mL) in a caspase assay buffer (100 μL; HEPES buffer (50 mM, pH 7.4), NaCl (100 mM), EDTA (1 mM), CHAPS (0.1%), DTT (10 mM), PMSF (1 mM) and glycerol (10%)) in a well of a black 96-well plate. The plate was then placed in a SpectraMax Germini XS fluorescence microplate reader (Molecular Devices Corp., Sunnyvale, Calif.), with the excitation wavelength set at 485 nm and emission collection wavelength set at 530 nm, to measure the fluorescence signal over time, as shown in FIG. 3.

[2] = target: T1, caspase-3 activity in Jurkat cells; test: Detection of caspase-3 activity in live cells by flow cytometry; type: cell-based; conditions: for caspase-3-positive cell identification: Jurkat cells, substrate 10 μM for 15 minutes, FL1 channel
Protocol: In this example, Jurkat cells were used to test whether Substrate No. 19 may be used to detect caspase-3 activity, or a lack thereof, within live cells by generating a nucleic acid dye that forms fluorescence upon binding to DNA. A flask of Jurkat cells were induced with staurosporine (1 μM) for apoptosis. Aliquots of the induced Jurkat cells were taken at 1 hour, 2.5 hours and 5 hours after induction, respectively, and aliquots of uninduced Jurkat cells, which served as negative controls, were taken at the same times. Substrate No. 19 was added to each Jurkat cell culture medium to give a final concentration of 10 μM and each resulting medium was allowed to incubate for 15 minutes before undergoing flow cytometry analysis using the FL1 channel for green fluorescence. […] For example, a stimulation time of 1 hour, 2.5 hours and 5 hours was associated with a 10%, 80% and 97% caspase-3-positive cell identification, respectively, as may be seen in the representations B, C and D of FIG. 4, respectively. One hour of staurosporine induction was required for Substrate No. 19 to reliably detect the presence of caspase-3-positive cells. Detection of intracellular caspase-3 activity via Substrate No. 19 is possible after only 15 minutes of incubation time, without necessitating cell destruction. Thus, it may be possible to continuously monitor enzymatic activity over more or less the entire course of cellular life via an enzyme substrate such as Substrate No. 19.

calf thymus DNA = test: Measurement of fluorescence spectra in the presence of DNA; type: binding; conditions: 1 μM in pH 7.4 TE buffer, excess calf thymus DNA, excitation 600 nm, FIG. 1
Protocol: Stock solutions of nucleic acid dye-based substrates and respective control compounds were prepared by dissolving each compound in DMSO at 1 mg/mL concentration. The stock solutions were diluted into a pH 7.4 buffer (TE buffer) comprising Tris (10 mM), EDTA (1 mM) and NaCl (50 mM) to give a final concentration of 1 μM. Dye solutions containing an excess amount of DNA were prepared by adding a sufficient amount of calf thymus DNA calculated to yield a ratio of greater to or equal to 50 DNA base pairs per dye molecule. A fluorescence spectrum for each dye was recorded before and after the addition of DNA using a Jasco F-750 fluorescence spectrophotometer, with the fluorescence excitation wavelength set at λA-25 nm or 600 nm, where λA is the absorption maximum for each dye in the presence or the absence of DNA, and emission collection wavelength set at 660 nm.

phosphatidylserine (PS) = test: Texas Red-Annexin V staining of apoptotic Jurkat cells by confocal microscopy; type: cell-based; conditions: Jurkat cells induced 4 hours with staurosporine (1 μM), 15 minutes of incubation at room temperature, confocal microscope, FIG. 5
Protocol: as §1

Molecule: C[n+]1c(C=C2C=CN(CCCCCC(=O)NCCN)c3ccccc32)sc2ccccc21 [Compound No. 7]
fluorescence response to dsDNA concentration (DNA titration) (calf thymus dsDNA): fluorescently responsive to the amount of DNA present

Molecule: C[n+]1c(/C=C2\C=CN(CCCCCC(=O)NCCNC(=O)C(CCCCN)NC(=O)OC(C)(C)C)c3ccccc32)sc2ccccc21.[I-] (stereo not drawn) [Compound No. 23]
fluorescence response to dsDNA concentration (DNA titration) (calf thymus dsDNA): fluorescently responsive to the amount of DNA present

fluorescent staining pattern of cells [1]: green fluorescence in cellular nuclei
fluorescence increase over time with caspase-3 and dsDNA (caspase-3): substrate for caspase-3 enzyme
caspase-3-positive cell identification ([2]; staurosporine (1 μM) stimulation 1 hour): 10%
caspase-3-positive cell identification ([2]; staurosporine (1 μM) stimulation 2.5 hours): 80%
caspase-3-positive cell identification ([2]; staurosporine (1 μM) stimulation 5 hours): 97%
staurosporine induction required to reliably detect caspase-3-positive cells ([2]; live Jurkat cells, staurosporine 1 μM, substrate 10 μM): One
incubation time after which detection of intracellular caspase-3 activity is possible ([2]; live Jurkat cells, without cell destruction): 15 min
Molecule: CC(=O)N[C@@H](CC(=O)O)C(=O)N[C@@H](CCC(=O)O)C(=O)N[C@H](C(=O)N[C@@H](CC(=O)O)C(=O)NCCNC(=O)CCCCCN1C=CC(=Cc2sc3ccccc3[n+]2C)c2ccccc21)C(C)C [Substrate No. 19]
fluorescence response to dsDNA concentration (DNA titration) (calf thymus dsDNA): relatively insensitive to the presence of DNA

Molecule: CC(=O)N[C@H](CC(=O)O)C(=O)N[C@H](CCC(=O)O)C(=O)N[C@@H](C(=O)N[C@H](CC(=O)O)C(=O)NCCNC(=O)CCCN1C=CC(=CC=Cc2sc3ccccc3[n+]2C)c2ccccc21)C(C)C [Substrate No. 20]
fluorescence response to dsDNA concentration (DNA titration) (calf thymus dsDNA): relatively insensitive to the presence of DNA

Molecule: CC(=O)NCCCCC(NC(=O)OC(C)(C)C)C(=O)NCCNC(=O)CCCCCN1C=C/C(=C\c2sc3ccccc3[n+]2C)c2ccccc21.[I-] (stereo not drawn) [Compound No. 21]
fluorescence response to dsDNA concentration (DNA titration) (calf thymus dsDNA): relatively insensitive to the presence of DNA

Molecule: C[n+]1c(/C=C/C=C2\C=CN(CCCC(=O)NCCN)c3ccccc32)sc2ccccc21 [Compound No. 24]
fluorescence emission in the presence of DNA, control versus substrate (calf thymus DNA): substantially more fluorescent than Substrate No. 20
fluorescence response to dsDNA concentration (DNA titration) (calf thymus dsDNA): fluorescently responsive to the amount of DNA present

B1: Texas Red-conjugated Annexin V: fluorescent stain (Biotium Inc.) that is used to identify apoptotic cells by staining phosphatidylserine (conjugate, UniProt P08758 2-320, looked up)
Annexin A5: AQVLRGTVTDFPGFDERADAETLRKAMKGLGTDEESILTLLTSRSNAQRQEISAAFKTLFGRDLLDDLKSELTGKFEKLIVALMKPSRLYDAYELKHALKGAGTNEKVLTEIIASRTPEELRAIKQVYEEEYGSSLEDDVVGDTSGYYQRMLVVLLQANRDPDAGIDEAQVEQDAQALFQAGELKWGTDEEKFITIFGTRSVSHLRKVFDKYMTISGFQIEETIDRETSGNLEQLLLAVVKSIRSIPAYLAETLYYAMKGAGTDDHTLIRVMVSRSEIDLFNIRKEFRKNFATSLYSMIKGDTSGDYKKALLLLCGEDD
modifications: Texas Red dye
notes: fluorescent stain (Biotium Inc.) that is used to identify apoptotic cells by staining phosphatidylserine
fluorescent staining pattern of cells (phosphatidylserine (PS)): red fluorescence on a cytoplasmic membrane

Source: patent publication US8778627B2, “Enzyme substrate comprising a functional dye and associated technology and methods” (Biotium, Inc., priority 2006, dated 2014)
